The values that follow come from patent US6346535B1, “Fungicidal mixtures” (American Cyanamid Company, priority 1999, dated 2002).

What all share (type): in vivo
The subject of test [1] is Pyrenophora teres on barley. Nature of the test: Greenhouse trial, 4 day residual, Pyrenophora teres on barley. The note with it: for pest or weed control at 2 ppm / pest or weed control at 10 ppm / pest or weed control at 0.4 ppm: Pyrenophora teres, 96 h, read-out: Observed Efficacy. An excerpt:
(§1) The fungicides are applied in single treatments, or in a combination comprising a benzophenone of formula I and a compound selected from (A) through (E) as defined above. The compounds are applied in form of an aqueous spray mix obtained from a concentrated formulation or the technical material.
(§2) 1. Seed is planted in 6 cm diameter plastic pots and maintained in the greenhouse.
(§3) 2. When the primary leaf is fully expanded (in the case of cereals) or several leaves are present (in the case of dicots), formulated test compounds are sprayed with a three nozzle overhead fungicide sprayer to near run-off. Alternatively, a single nozzle overhead track sprayer is used for application of the compounds to cereals at a rate of 200 liters/ha (l/ha). Plants are then allowed to air-dry.
(§4) 3. Inoculation precedes treatment in the case of curative evaluations and follows treatment in case of residual evaluations. For inoculation of powdery mildew disease, plants are set up on greenhouse benches with bottom watering mats and inoculated by dusting them with conidia from infected plants. Between inoculation and treatment for curative evaluations and between treatment and inoculation for residual evaluations, plants are maintained in the greenhouse with bottom watering. For inoculation of non-powdery mildew diseases, an aqueous spore suspension of the pathogen is applied to the plant and the plants are kept 1-2 days in a moist infection chamber before being returned to the greenhouse where they are maintained by bottom watering.
(§5) 4. Disease on the foliage as percent leaf area with disease symptoms/signs is evaluated about 7 days after inoculation. In the case of wheat, the tips and bases of the leaves are excluded from the evaluation. [formula]
(§6) 1. Technical compounds are formulated in a solvent/surfactant system consisting of 5% acetone and 0.05% Tween 20 in deionized water. Compounds are dissolved in acetone prior to addition of the water; the Tween 20 can be added through either the acetone or the water. Dilutions are made using the solvent/surfactant system. Formulated compounds are prepared using deionized water.
(§7) Assessments of the diseases took place at the indicated day after the application of the compounds. Per cent infected leaf area infected was evaluated. The efficacy of the compounds/compounds mixtures to control the diseases was calculated by using the formula given above under item 4: […]
(§8) Synergy of a fungicide mixture was determined by comparing the actual (observed) fungicidal activity of the mixture to the expected fungicidal activity of the mixture as calculated using the COLBY formula given hereinabove.
Fungicidal Efficacy of the Mixture of BP-4+Other Fungicides (4 Day Residual) Against Pyrenophora teres on Barley

Test [2] has as its system Erysiphe cichoracearum on cucumbers. Nature of the test: Greenhouse trial, 4 day residual, Erysiphe cichoracearum on cucumbers. The note with it: for pest or weed control at 0.4 ppm / pest or weed control at 10 ppm / pest or weed control at 4 ppm / pest or weed control at 16 ppm / pest or weed control at 64 ppm / pest or weed control at 256 ppm / pest or weed control at 2 ppm / pest or weed control at 50 ppm: Golovinomyces cichoracearum, 96 h, read-out: Observed Efficacy.
Source text: as §1, §2, §3, §4, §5, §6, §7, §8

Test [3] concerns Puccinia recondita on wheat. The experiment in a line: Greenhouse trial, 4 day residual, Puccinia recondita on wheat.
Source text: as §1, §2, §3, §4, §5, §6, §7, §8
Fungicidal Efficacy of the Mixture of BP-4+Other Fungicides (4 Day Residual) Against Puccinia recondita on Wheat
Fungicidal Efficacy of the Mixture of BP-4+Myclobutanil (4 Day Residual) Against Puccinia recondita on Wheat

In test [4] the test system is Leptosphaeria nodorum on wheat. The experiment in a line: Greenhouse trial, 4 day residual, Leptosphaeria nodorum on wheat. As to conditions: Table VIII, compound alone; for pest or weed control at 4 ppm / pest or weed control at 16 ppm / pest or weed control at 64 ppm / pest or weed control at 256 ppm: Parastagonospora nodorum, 96 h, read-out: Observed Efficacy.
Source text: as §1, §2, §3, §4, §5, §6, §7, §8
Fungicidal Efficacy of the Mixture of BP-4+Other Fungicides (4 Day Residual) Against Leptosphaeria nodorum on Wheat

[5] abbreviates: Table XVI (Example 16), 4 day residual, dose rate 2 ppm.
Where [6] appears, read: Table XVI (Example 16), 4 day residual, dose rate 10 ppm.
Where [7] appears, read: Table XIV (Example 14), 4 day residual, dose rate 0.4 ppm.
The mark [8] stands for this setting: Table XIV (Example 14), 4 day residual, dose rate 10 ppm.
[9] abbreviates: Table VI, compound alone, dose rate 4 ppm.
The mark [10] stands for this setting: Table VI, compound alone, dose rate 16 ppm.
The mark [11] stands for this setting: Table VI, compound alone, dose rate 64 ppm.
Setting [12] is: Table VI, compound alone, dose rate 256 ppm.
The mark [13] stands for this setting: Puccinia recondita, 96 h, Table VII, compound alone, dose rate 4 ppm, read-out: Observed Efficacy.
The mark [14] stands for this setting: Puccinia recondita, 96 h, Table VII, compound alone, dose rate 16 ppm, read-out: Observed Efficacy.
The mark [15] stands for this setting: Puccinia recondita, 96 h, Table VII, compound alone, dose rate 64 ppm, read-out: Observed Efficacy.
[16] abbreviates: Puccinia recondita, 96 h, Table VII, compound alone, dose rate 256 ppm, read-out: Observed Efficacy.
[17] abbreviates: Puccinia recondita, 96 h, read-out: Observed Efficacy.
The mark [18] stands for this setting: Table VII, compound alone, dose rate 4 ppm.
[19] abbreviates: Table VII, compound alone, dose rate 16 ppm.
[20] abbreviates: Table VII, compound alone, dose rate 64 ppm.
Where [21] appears, read: Table VII, compound alone, dose rate 256 ppm.
Where [22] appears, read: Table XIII (Example 13), 4 day residual, dose rate 2 ppm.
[23] abbreviates: Table XIII (Example 13), 4 day residual, dose rate 10 ppm.
[24] abbreviates: Table XI, compound alone, dose rate 0.4 ppm.
The mark [25] stands for this setting: Table XI, compound alone, dose rate 2 ppm.
The mark [26] stands for this setting: Table XI, compound alone, dose rate 10 ppm.
The mark [27] stands for this setting: Table XI, compound alone, dose rate 50 ppm.
Setting [28] is: Table XIII (Example 13), 4 day residual, dose rate 0.4 ppm.
Where [29] appears, read: Table XIII (Example 13), 4 day residual, dose rate 50 ppm.

Like-named read-outs stand apart in the source and are kept apart here.

Regarding `CC(C1CC1)C(O)(Cn1cncn1)c1ccc(Cl)cc1` (centres unmarked) [Cyproconazole], the pest or weed control at 2 ppm in test [1] (setting [5]) stood at 4%; in test [3] (Puccinia recondita, 96 h, Table XV (Example 15), 4 day residual, dose rate 2 ppm, read-out: Observed Efficacy) it was 99%. The pest or weed control at 10 ppm in test [1] (setting [6]) came out at 1%; in test [2] (setting [8]), 68%. Further, the pest or weed control at 0.4 ppm in test [2] (setting [7]) is 19%; in test [3] (Puccinia recondita, 96 h, Table XV (Example 15), 4 day residual, dose rate 0.4 ppm, read-out: Observed Efficacy), 88%.

Turning to `N#Cc1sc2c(=O)c3ccccc3c(=O)c=2sc1C#N` [Dithianon], the pest or weed control at 4 ppm in test [2] (setting [9]) came to 0%; in test [3] (setting [13]) it was 4%; in test [4] (dose rate 4 ppm), 0%. Also, the pest or weed control at 16 ppm worked out at 0% in test [2] (setting [10]), 16% in test [3] (setting [14]) and 1% in test [4] (dose rate 16 ppm). The results for the pest or weed control at 64 ppm in test [2] (setting [11]), in test [3] (setting [15]) and in test [4] (dose rate 64 ppm) were 0%, 84% and 37%, respectively. In addition, the pest or weed control at 256 ppm in test [2] (setting [12]) is 0%; in test [3] (setting [16]), 95%; in test [4] (dose rate 256 ppm), 74%.

For the compound `CCCN(CCOc1c(Cl)cc(Cl)cc1Cl)C(=O)n1ccnc1` [Prochloraz], in test [1], the pest or weed control at 0.4 ppm came to 8%, the pest or weed control at 2 ppm was found to be 19% and the pest or weed control at 10 ppm amounted to 48%. In addition, in test [2], the pest or weed control at 0.4 ppm is 0%, the pest or weed control at 2 ppm worked out at 0%, the pest or weed control at 10 ppm came to 1% and the pest or weed control at 50 ppm stood at 18%. In test [3] (setting [17]), the pest or weed control at 0.4 ppm is 0%, the pest or weed control at 2 ppm amounted to 0%, the pest or weed control at 16 ppm was determined as 1% and the pest or weed control at 50 ppm turned out to be 14%.

Turning to Flusilazole, the “Observed Efficacy” value in test [1] (setting [5]) amounted to 8; in test [1] (setting [6]) it was 26; in test [2] (setting [7]) it was 0; in test [2] (Table XIV (Example 14), 4 day residual, dose rate 2 ppm), 0; in test [2] (setting [8]) it was 19; in test [3] (Table XV (Example 15), 4 day residual, dose rate 0.4 ppm) it was 5. For the same compound, in test [3] (Table XV (Example 15), 4 day residual, dose rate 2 ppm), the “Observed Efficacy” value stood at 28.

Quinoxyfen: the “Observed Efficacy” value in test [2] (setting [9]) was found to be 90%; in test [2] (setting [10]), 100%; in test [2] (setting [11]), 100%; in test [2] (setting [12]), 100%; in test [3] (setting [18]), 0%; in test [3] (setting [19]), 0%. Further, the “Observed Efficacy” value in test [3] (setting [20]) worked out at 0%; in test [3] (setting [21]), 0%; in test [4] (dose rate 16 ppm), 1%; in test [4] (dose rate 64 ppm) it was 0%; in test [4] (dose rate 256 ppm) it was 18%.

Consider `COc1ccc(C(=CC(=O)N2CCOCC2)c2ccc(Cl)cc2)cc1OC` [Dimethomorph], for which the results for the pest or weed control at 4 ppm in test [2] (setting [9]) and in test [4] (dose rate 4 ppm) were 0% and 1%, respectively. The pest or weed control at 16 ppm was found to be 0% in test [2] (setting [10]), 0% in test [3] (setting [14]) and 6% in test [4] (dose rate 16 ppm). Further, the pest or weed control at 64 ppm in test [2] (setting [11]) came out at 0%; in test [3] (setting [15]) it was 0%; in test [4] (dose rate 64 ppm), 11%. The pest or weed control at 256 ppm worked out at 18% in test [2] (setting [12]), 0% in test [3] (setting [16]) and 14% in test [4] (dose rate 256 ppm).

Turning to `S1SSSSSSS1` [Sulfur organic, Sulfur], the pest or weed control at 2 ppm in test [1] (setting [22]) and in test [2] (setting [25]) was 0% in each case. In addition, the pest or weed control at 10 ppm in test [1] (setting [23]) was 0%; in test [2] (setting [26]), 7%. For the same compound, the pest or weed control at 0.4 ppm in test [2] (setting [24]) was determined as 0%. The pest or weed control at 50 ppm in test [2] (setting [27]) is 0%.

Regarding `[Cl-].[Cu+2].[Cu+2].[OH-].[OH-].[OH-]` [Copper oxychloride], the “Observed Efficacy” value in test [1] (setting [28]) is given as 0; in test [1] (setting [22]), 0; in test [1] (setting [23]), 14; in test [1] (setting [29]) it was 14.

For `CO/N=C(/C(=O)OC)c1ccccc1COc1ccccc1C` [Kresoxim-methyl], the pest or weed control at 0.4 ppm is 0% in test [1] (setting [28]) and 2% in test [2] (setting [24]). In addition, the figures for the pest or weed control at 2 ppm in test [1] (setting [22]) and in test [2] (setting [25]) were 21% and 14%, respectively. Moreover, in test [2] (setting [26]), the pest or weed control at 10 ppm came out at 88%. Besides, the pest or weed control at 50 ppm in test [2] (setting [27]) is 100%.

On to `CC(Cc1ccc(C(C)(C)C)cc1)CN1CCCCC1` (centres unmarked) [Fenpropidin], for which the pest or weed control at 4 ppm in test [2] (setting [9]) and in test [3] (setting [13]) was 0% throughout. Also, the pest or weed control at 16 ppm in test [2] (setting [10]) came out at 6%; in test [3] (setting [14]), 0%. The values for the pest or weed control at 64 ppm in test [2] (setting [11]), in test [3] (setting [15]) and in test [4] (dose rate 64 ppm) were 21%, 8% and 0%, respectively. Moreover, the pest or weed control at 256 ppm in test [2] (setting [12]) came out at 69%; in test [3] (setting [16]) it was 97%; in test [4] (dose rate 256 ppm), 21%.

Turning to Cyprodinil, the “Observed Efficacy” value in test [2] (setting [9]) turned out to be 0%; in test [2] (setting [10]) it was 0%; in test [2] (setting [11]), 0%; in test [2] (setting [12]), 15%; in test [3] (setting [18]) it was 0%; in test [3] (setting [19]), 0%. Besides, the “Observed Efficacy” value is on record as 0% in test [3] (setting [20]); 0% in test [3] (setting [21]); 0% in test [4] (dose rate 4 ppm); 75% in test [4] (dose rate 16 ppm); 88% in test [4] (dose rate 64 ppm); 93% in test [4] (dose rate 256 ppm).

Turning to Propiconazole, the “Observed Efficacy” value turned out to be 0 in test [1] (setting [28]); 0 in test [1] (setting [22]); 38 in test [1] (setting [23]); 74 in test [1] (setting [29]); 0% in test [2] (setting [24]); 19% in test [2] (setting [25]). The “Observed Efficacy” value in test [2] (setting [26]) was determined as 76%; in test [2] (setting [27]) it was 96%.
